Experimental data from patent publication US8822477B2, “Use of osmolytes obtained from extremophilic bacteria for producing medicine for the external treatment of neurodermatitis” (Bitop AG, priority 2003, dated 2014).

System: neurodermatitis
Test: topical treatment of neurodermatitis compared with placebo treatment
Type: in vivo
Details: for healing of affected skin changes: in comparison to a placebo treatment; for effectiveness in the treatment of neurodermatitis: topic application

With `CC1=NC[C@H](O)[C@@H](C(=O)O)N1` [hydroxyectoine] the “healing of affected skin changes” value was “unexpectedly accelerated healing of affected skin changes” and the “effectiveness in the treatment of neurodermatitis” value was “surprisingly high effectiveness”.

With `CC1=NCC[C@@H](C(=O)O)N1` [ectoine] the “healing of affected skin changes” value was “unexpectedly accelerated healing of affected skin changes” and the “effectiveness in the treatment of neurodermatitis” value was “surprisingly high effectiveness”.
